# ChEMBL document CHEMBL3751801, “Synthesis of novel polybrominated benzimidazole derivatives-potential CK2 inhibitors with anticancer and proapoptotic activity” (Bioorg Med Chem, 2016)
# Key:
# [1] = target: Casein kinase II subunit alpha (Homo sapiens, UniProt P68400); test: Inhibition of recombinant human CK2alpha using RRRDDDSDDD substrate peptide by scintillation counter in presence of [32P]ATP
# [2] = target: T1, CDK2/Cyclin A2 (Homo sapiens) (UniProt P24941+P20248); test: Inhibition of CDK2/CycA2 (unknown origin) assessed as enzyme activity at 5 microM; assay type: protein-complex assay; parameters: scale not given: the % may be the effect or the level left
# [3] = target: Casein kinase I isoform alpha (Homo sapiens) (UniProt P48729); test: Inhibition of CK1-alpha1 (unknown origin) assessed as enzyme activity at 5 uM; parameters: scale not given: the % may be the effect or the level left
# [4] = target: Dual specificity tyrosine-phosphorylation-regulated kinase 1A (Homo sapiens) (UniProt Q13627); test: Inhibition of DYRK1A (unknown origin) assessed as enzyme activity at 5 uM; parameters: scale not given: the % may be the effect or the level left
# [5] = target: Mitogen-activated protein kinase 3 (Homo sapiens) (UniProt P27361); test: Inhibition of Erk1 (unknown origin) assessed as enzyme activity at 5 uM; parameters: scale not given: the % may be the effect or the level left
# [6] = target: Homeodomain-interacting protein kinase 1 (Homo sapiens) (UniProt Q86Z02); test: Inhibition of HIPK1 (unknown origin) assessed as enzyme activity at 5 uM; parameters: scale not given: the % may be the effect or the level left
# [7] = target: Serine/threonine-protein kinase pim-1 (Homo sapiens) (UniProt P11309); test: Inhibition of PIM1 (unknown origin) assessed as enzyme activity at 5 uM; parameters: scale not given: the % may be the effect or the level left
# Homo sapiens [8] = organism: Homo sapiens; test: Inhibition of PKA (unknown origin) assessed as enzyme activity at 5 uM; parameters: scale not given: the % may be the effect or the level left
# [9] = target: T2, Serine/threonine-protein kinase D2 (Homo sapiens) (UniProt Q9BZL6); test: Inhibition of PRKD2 (unknown origin) assessed as enzyme activity at 5 uM; parameters: scale not given: the % may be the effect or the level left
# T2 sequence (whole entry): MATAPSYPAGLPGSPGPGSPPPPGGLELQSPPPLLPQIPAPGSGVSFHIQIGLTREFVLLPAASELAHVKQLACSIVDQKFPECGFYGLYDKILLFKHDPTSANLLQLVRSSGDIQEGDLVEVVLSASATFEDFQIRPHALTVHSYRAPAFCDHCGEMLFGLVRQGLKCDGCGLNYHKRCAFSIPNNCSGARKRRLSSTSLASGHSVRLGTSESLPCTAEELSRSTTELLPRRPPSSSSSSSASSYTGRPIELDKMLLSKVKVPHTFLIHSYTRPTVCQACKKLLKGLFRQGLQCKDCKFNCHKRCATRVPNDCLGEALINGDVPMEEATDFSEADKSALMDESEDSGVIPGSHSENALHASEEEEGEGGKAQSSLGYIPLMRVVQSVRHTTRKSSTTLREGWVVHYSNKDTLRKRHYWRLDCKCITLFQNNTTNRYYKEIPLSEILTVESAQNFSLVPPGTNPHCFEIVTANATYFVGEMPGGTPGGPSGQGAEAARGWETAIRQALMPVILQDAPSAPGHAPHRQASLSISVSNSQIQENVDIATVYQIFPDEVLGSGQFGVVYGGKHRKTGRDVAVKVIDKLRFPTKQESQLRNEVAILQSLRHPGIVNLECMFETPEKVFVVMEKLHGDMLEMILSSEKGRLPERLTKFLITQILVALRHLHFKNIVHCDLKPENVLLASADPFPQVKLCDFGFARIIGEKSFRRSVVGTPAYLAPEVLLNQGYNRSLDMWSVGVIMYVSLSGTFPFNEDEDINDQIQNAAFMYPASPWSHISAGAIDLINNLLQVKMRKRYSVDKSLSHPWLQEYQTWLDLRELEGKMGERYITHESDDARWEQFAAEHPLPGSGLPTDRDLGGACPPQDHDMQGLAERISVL
# CCRF-CEM [10] = test: Cytotoxicity against human CCRF-CEM cells assessed as cell viability at 10 uM after 24 hrs by MTT assay; assay type: functional; conditions: read-out: Activity
# CCRF-CEM [11] = test: Cytotoxicity against human CCRF-CEM cells assessed as cell viability at 20 uM after 24 hrs by MTT assay; assay type: functional; conditions: read-out: Activity
# CCRF-CEM [12] = test: Cytotoxicity against human CCRF-CEM cells assessed as cell viability at 50 uM after 24 hrs by MTT assay; assay type: functional; conditions: read-out: Activity
# MCF7 [13] = test: Cytotoxicity against human MCF7 cells assessed as cell viability at 10 uM after 24 hrs by MTT assay; assay type: functional; conditions: MCF7, 24 h, read-out: Activity
# MCF7 [14] = test: Cytotoxicity against human MCF7 cells assessed as cell viability at 20 uM after 24 hrs by MTT assay; assay type: functional; conditions: MCF7, 24 h, read-out: Activity
# MCF7 [15] = test: Cytotoxicity against human MCF7 cells assessed as cell viability at 50 uM after 24 hrs by MTT assay; assay type: functional; conditions: MCF7, 24 h, read-out: Activity
# CCRF-CEM [16] = test: Induction of apoptosis in human CCRF-CEM cells assessed as viable cells at 10 uM after 24 hrs by annexinV and propidium iodide staining based FACS analysis (reference value: 96.4 +/- 1.2%); assay type: functional; conditions: read-out: Activity
# CCRF-CEM [17] = test: Induction of apoptosis in human CCRF-CEM cells assessed as viable cells at 50 uM after 24 hrs by annexinV and propidium iodide staining based FACS analysis (reference value: 96.4 +/- 1.2%); assay type: functional; conditions: read-out: Activity
# CCRF-CEM [18] = test: Induction of apoptosis in human CCRF-CEM cells assessed as early apoptotic cells at 10 uM after 24 hrs by annexinV and propidium iodide staining based FACS analysis (reference value: 1.5 +/- 0.8%); assay type: functional
# CCRF-CEM [19] = test: Induction of apoptosis in human CCRF-CEM cells assessed as early apoptotic cells at 50 uM after 24 hrs by annexinV and propidium iodide staining based FACS analysis (reference value: 1.5 +/- 0.8%); assay type: functional
# CCRF-CEM [20] = test: Induction of apoptosis in human CCRF-CEM cells assessed as late apoptotic cells at 10 uM after 24 hrs by annexinV and propidium iodide staining based FACS analysis (reference value: 1.9 +/- 0.5%); assay type: functional
# CCRF-CEM [21] = test: Induction of apoptosis in human CCRF-CEM cells assessed as late apoptotic cells at 50 uM after 24 hrs by annexinV and propidium iodide staining based FACS analysis (reference value: 1.9 +/- 0.5%); assay type: functional
# CCRF-CEM [22] = test: Induction of apoptosis in human CCRF-CEM cells assessed as necrotic cells at 10 uM after 24 hrs by annexinV and propidium iodide staining based FACS analysis (reference value: 0.1 +/- 0.1%); assay type: functional
# CCRF-CEM [23] = test: Induction of apoptosis in human CCRF-CEM cells assessed as necrotic cells at 50 uM after 24 hrs by annexinV and propidium iodide staining based FACS analysis (reference value: 0.1 +/- 0.1%); assay type: functional
# [24] = target: Casein kinase II (Homo sapiens) (UniProt P67870+P68400+P19784); conditions: CCRF-CEM, 5 uM
# [25] = target: T1, CDK2/Cyclin A2 (Homo sapiens); test: Inhibition of CDK2/CycA2 (unknown origin) assessed as enzyme activity at 10 uM; assay type: protein-complex assay; parameters: scale not given: the % may be the effect or the level left
# [26] = target: Casein kinase I isoform alpha (Homo sapiens) (UniProt P48729); test: Inhibition of CK1-alpha1 (unknown origin) assessed as enzyme activity at 10 uM; parameters: scale not given: the % may be the effect or the level left
# [27] = target: Dual specificity tyrosine-phosphorylation-regulated kinase 1A (Homo sapiens) (UniProt Q13627); test: Inhibition of DYRK1A (unknown origin) assessed as enzyme activity at 10 uM; parameters: scale not given: the % may be the effect or the level left
# [28] = target: Mitogen-activated protein kinase 3 (Homo sapiens) (UniProt P27361); test: Inhibition of Erk1 (unknown origin) assessed as enzyme activity at 10 uM; parameters: scale not given: the % may be the effect or the level left
# [29] = target: Homeodomain-interacting protein kinase 1 (Homo sapiens) (UniProt Q86Z02); test: Inhibition of HIPK1 (unknown origin) assessed as enzyme activity at 10 uM; parameters: scale not given: the % may be the effect or the level left
# [30] = target: Serine/threonine-protein kinase pim-1 (Homo sapiens) (UniProt P11309); test: Inhibition of PIM1 (unknown origin) assessed as enzyme activity at 10 uM; parameters: scale not given: the % may be the effect or the level left
# Homo sapiens [31] = organism: Homo sapiens; test: Inhibition of PKA (unknown origin) assessed as enzyme activity at 10 uM; parameters: scale not given: the % may be the effect or the level left
# [32] = target: T2, Serine/threonine-protein kinase D2 (Homo sapiens); test: Inhibition of PRKD2 (unknown origin) assessed as enzyme activity at 10 uM; parameters: scale not given: the % may be the effect or the level left
SMILES,viability at 10 µM (CCRF-CEM [10]),viability at 20 µM (CCRF-CEM [11]),viability at 50 µM (CCRF-CEM [12]),viability at 10 µM (MCF7 [13]),viability at 20 µM (MCF7 [14]),viability at 50 µM (MCF7 [15]),viability at 10 µM (CCRF-CEM [16]),viability at 50 µM (CCRF-CEM [17]),Activity (CCRF-CEM [18]),Activity (CCRF-CEM [19]),Activity (CCRF-CEM [20]),Activity (CCRF-CEM [21]),Activity (CCRF-CEM [22]),Activity (CCRF-CEM [23]),further results
Cc1nc2c(Br)c(Br)c(Br)c(Br)c2[nH]1,29%,15%,6%,76%,66%,33%,36.7%,14.2%,47.3%,59.8%,15.3%,27.3%,0.5%,0.4%,Ki [1]: 1110 nM; Activity [2]: 20%; Activity [3]: 84%; Activity [4]: 17%; Activity [5]: 92%; Activity [6]: 43%; Activity [7]: 6%; Activity (Homo sapiens [8]): 113%; Activity [9]: 14%; inhibition [24]: 20%
N#CCCCn1cnc2c(Br)c(Br)c(Br)c(Br)c21,85%,70%,2%,89%,70%,16%,92.8%,21.5%,3.3%,41.1%,3.8%,33.3%,0.1%,2.3%,
Brc1c(Br)c(Br)c2[nH]cnc2c1Br,92%,67%,7%,94%,77%,40%,94.8%,18.8%,2.4%,59.2%,2.7%,26%,0.1%,1%,Activity [25]: 23%; Activity [26]: 48%; Activity [27]: 3%; Activity [28]: 78%; Activity [29]: 9%; Activity [30]: 2%; Activity (Homo sapiens [31]): 75%; Activity [32]: 5%
Cc1nc2c(Br)c(Br)c(Br)c(Br)c2n1CCC#N,84%,51%,2%,85%,74%,15%,82%,6.2%,10.6%,69.6%,7.1%,20.1%,0.2%,0.9%,
N#CCCn1cnc2c(Br)c(Br)c(Br)c(Br)c21,80%,44%,2%,81%,72%,23%,90.6%,5.4%,5.4%,77.2%,3.9%,17%,0.1%,0.4%,
